Where two headings read alike, the source gives them in different places.
Experiments:
HDAC1 = system: HDAC1; parameters: method as in PMID 34965958; conditions: cell-free; cited from earlier work
[1] = plasma pharmacokinetics by LC-MS/MS in patients; format: in vivo, human; conditions: for Tmax: read-out: Tmax of OKI-006 (Free)
Method: Blood samples were collected immediately prior to the first dose on cycle 1 and day 1, and then at 0.25, 0.5, 1, 2, 4, 8, and 24 h after taking OKI-179 on days 1 and 15. Additional samples were collected pre-dose and 2 and 4 h after OKI-179 administration on day 18 in later cohorts. Blood samples were stabilized with sodium fluoride and formic acid immediately after collection to arrest the additional conversion of the prodrug OKI-179 to OKI-006. Plasma was further stabilized using ascorbic acid prior to low-temperature storage.
Plasma concentrations of OKI-179 and OKI-006 were analyzed using validated liquid chromatography-mass spectrometry (LC-MS/MS) (Quintara Discovery Inc., Hayward, CA, USA). OKI-006 contains a free thiol moiety that can reversibly react with endogenous molecules in the blood and tissue, resulting in “bound” OKI-006. The unreacted OKI-006 is considered “free”. As bound OKI-006 can reversibly convert to free OKI-006 in vivo, both the free and “total” (free plus bound) concentrations of OKI-006 are considered pharmacologically relevant and were therefore quantified as part of this study. Bioanalytically, the total OKI-006 was measured by chemically converting all bound OKI-006 to free OKI-006 prior to analysis using the free OKI-006 bioanalytical method.
The AUClast was calculated from time zero to the time of the last quantifiable concentration for OKI-179, free OKI-006, and total OKI-006.

Class IIa HDACs = system: Class IIa HDACs; parameters: method as in PMID 34965958; conditions: cited from earlier work
HDAC3 = system: HDAC3; parameters: method as in PMID 34965958; conditions: cell-free; cited from earlier work
HDAC8 = system: HDAC8; parameters: method as in PMID 34965958; conditions: cell-free; cited from earlier work
HDAC2 = system: HDAC2; parameters: method as in PMID 34965958; conditions: cell-free; cited from earlier work
[2] = OKI-179 300-mg 5:2, Cycle 1 Day 1, geometric mean
[3] = OKI-179 300-mg 5:2, Cycle 1 Day 15, geometric mean

AUClast of OKI-006 (Free) [1, 2]: 2790 ng·h/mL
MRAUC, OKI-006 (Free) to OKI-179 metabolite ratio based on AUClast [1, 2]: 13.3
AUClast of OKI-006 (Free) [1, 3]: 3180 ng·h/mL
Cmax of OKI-006 (Free) [1, 3]: 2220 ng/mL
MRAUC, OKI-006 (Free) to OKI-179 metabolite ratio based on AUClast [1, 3]: 10.3
Tmax ([1]; human, plasma, oral, 300 mg, OKI-179 300-mg 5:2, Cycle 1 Day 1, median): 41.5 min
Tmax ([1]; human, plasma, oral, 300 mg, OKI-179 300-mg 5:2, Cycle 1 Day 15, median): 56 min
half-life ([1]; human, plasma, oral, 300 mg, OKI-179 300-mg 5:2, Cycle 1 Day 15, median, read-out: t1/2 of OKI-006 (Free) (converted)): 206 min
SMILES: CC(C)[C@@H]1NC(=O)C(C)(C)NC(=O)c2csc(n2)CNC(=O)C[C@@H](/C=C/CCS)OC1=O [OKI-006]
IC50 (HDAC1): 1.2 nM
Cmax and AUC versus preclinical threshold for efficacy ([1]; OKI-179 doses of 200 mg or greater): exceeded the preclinical threshold for efficacy
IC50 (Class IIa HDACs): > 1000 nM
IC50 (HDAC3): 2 nM
IC50 (HDAC8): 47 nM
IC50 (HDAC2): 2.4 nM
